Laboratory results published in patent US7910305B2, “Methods for screening for compounds that modulate insulin promoter activity” (The Burnham Institute for Medical Research, priority 2005, dated 2011).
Peptide text beside a SMILES is read from it. * marks the point of attachment. Cbz = O=C(OCc1ccccc1)*

How the values were obtained:
[1] = tested on: human insulin gene (hINS) promoter-eGFP reporter in MIN6 mouse insulinoma cells; assay: insulin promoter-destabilized eGFP reporter fluorescence in engineered MIN6 cells; format: cell-based; conditions: 384-well plates, three-fold titration series, imaged 48 hours after compound addition
Description: We have developed a screen for small molecule compounds that modulate insulin promoter activity. Identifying these compounds and eventually their targets should provide insights into the signaling pathways that control insulin expression. The assay is based upon a mouse insulinoma, MIN6, that normally expresses insulin mRNA. This cell was engineered to stably contain two cassettes that use a fluorescent reporter protein to monitor insulin promoter activity and a housekeeping gene activity. The primary assay is to detect compounds that alter expression of an insulin promoter-destabilized eGFP reporter cassette in mouse insulinoma (MIN6) cells relative to that of a housekeeping gene, heat shock protein 68, the promoter of which is used in a second cassette to direct expression of destabilized dsRED2. […]
Engineering of MIN6 for Image-Based, High Throughput Screening. […] Viral supernatants harvested at 24 to 72 hours were 0.45 μm filtered and concentrated 100- to 200-fold by ultrafiltration using Centricon Plus-80 units (Millipore, Bedford, Mass., USA), yielding titers of approximately 10^9 transducing units (TU) per milliliter 5, determined by transduction of 293T cells with serial dilutions of the pRRL.SIN-18.cPPT.hPGK-EGFP.WPRE viral supernatant and FACS analysis to determine the percentage of EGFP-expressing cells. […]

[2] = tested on: human insulin promoter-eGFP reporter in T6PN/E47MER cells; assay: insulin promoter-eGFP reporter fluorescence in T6PN/E47MER cells; format: cell-based; conditions: T6PN/E47MER cells infected with insulin promoter-eGFP lentiviral vector
Description: (§1) To increase the level of insulin expression, TRM-6 cells expressing PDX-1 and NeuroD1 (T6PN cells) (Follenzi et al., Nature Genet. 25:217-222, 2000) were infected with an E47^MER retroviral vector and selected by FACS. E47^MER consists of the class I bHLH factor E47 which is a potent insulin transactivator fused to a mutated estrogen receptor that renders it functional only in the presence of tamoxifen. […] To determine whether the effects of E47 were limited to insulin expression or had more general effects on beta-cell differentiation, a panel of other beta-cell genes was examined. […] Thus, T6PN/E47^MER cells express a substantial number of important beta-cell genes, making them an appropriate target for the insulin promoter screens described herein.
Assay Protocol. The following is a detailed assay protocol for the primary assay, i.e., first assay performed in a testing scheme to identify biologically active chemical entities in a screening mode: […]

insulin mRNA = assay: RT-PCR for endogenous insulin mRNA in T6PN/E47MER cells; format: cell-based, human
Description: (A) Insulin mRNA is barely detectable by non-quantitative RT-PCR in the absence of tamoxifen in two biological replicates of T6PN/E47^MER cells.
Cells were exposed to 5 micromolar compound and also had 0.5 micromolar tamoxifen. […] […] Both GFP and insulin mRNA levels are normalized for GAPDH mRNA to rule out nonspecific effects of the compounds on transcription.
as §1
Second Confirmatory Assay. Compounds that passed the primary confirmatory assay were passed on for further testing in a secondary confirmatory assay. This consisted of RT-PCR of GFP and endogenous insulin mRNA (FIG. 7). Both GFP and endogenous insulin RT-PCR assays are performed because of the possibility that a compound may affect the 1.4 kb insulin promoter transgene but not the endogenous insulin promoter, which may be under more complex control.

myosin heavy chain gene = assay: RT-PCR for myosin heavy chain gene in T6PN/E47MER cells; format: cell-based, human

Compound	eGFP fluorescence [1]	eGFP induction [2]	insulin mRNA (RT-PCR), positive control (insulin mRNA; 4 micromolar tamoxifen control)	insulin mRNA by non-quantitative RT-PCR (insulin mRNA; T6PN/E47MER cells with versus without tamoxifen, two biological replicates)	insulin mRNA by quantitative real-time RT-PCR (insulin mRNA; T6PN/E47MER cells, E47 activity induced by tamoxifen, two biological replicates)	induction of insulin gene expression (insulin mRNA; induction of E47 activity (E47MER functional only with tamoxifen) in T6PN cells) [fold]	myosin heavy chain gene induction (myosin heavy chain gene)
CC(C)C[C@@H](C=O)NC(=O)[C@H](CC(C)C)NC(=O)[C@H](CC(C)C)NC(=O)OCc1ccccc1 [MG132] (Cbz-Leu-Leu-Leu-aldehyde)	dose-dependent increase in eGFP fluorescence						
C[C@@H]1C[C@@H]([C@H](O)CC2CC(=O)NC(=O)C2)C(=O)[C@@H](C)C1 [cyclohexamide]	decrease in fluorescence intensity						
CC/C(=C(\c1ccccc1)c1ccc(OCCN(C)C)cc1)c1ccccc1 [tamoxifen]		High levels of eGFP	maximum induction of insulin mRNA	strongly induced	dramatic upregulation of insulin mRNA	100	not induced
